Source: US20240390438A1, “PROBIOTICS SEPARATED FROM RABBIT FECES AND FOOD CONTAINING PROBIOTICS” (AGENT Innovation Co., Ltd., priority 2021, published 2024)
In brackets after ≈: the same amount, converted by molar mass. Where two headings read alike, the source gives them in different places.

Assays:
[1] = system: L. plantarum 299v; conditions: from Klarin et al., 2019; cited from earlier work
[2] = system: Colony LP19; assay: Antibiotic susceptibility test; type: cell-based, Lactiplantibacillus Plantarum; conditions: for MIC: Lactiplantibacillus plantarum, LP19, 24 h; for Minimum inhibitory concentration of the antibiotic to LP19: 96-well, 37 C 24 h, OD600
Source text: (§1) To test bacterial susceptibility to antibiotics, such as Aminoglycosides antibiotics, Sulfonamide antibiotics, Quinolone antibiotics, Ampicillin, Cefotaxime, Chloramphenicol, Erythromycin, Rifampicin and Tetracycline, the experimental protocol were as follow. Further, the Quinolone antibiotics comprise Ciprofloxacin, the Aminoglycosides antibiotics comprise Kanamycin and […], and the Sulfonamide antibiotics comprise Sulfamethoxazole. […] The initial absorbance at 600 nm (OD600) of each well was recorded. Then, the 96-well plates were placed at 37° C. and cultured for 24 hours. Next, the OD600 of each well was measured again to determine minimum inhibitory concentration.

[3] = system: Colony LP5; assay: Antibiotic susceptibility test; type: cell-based, Lactiplantibacillus Plantarum; conditions: for MIC: Lactiplantibacillus plantarum, LP5, 24 h; for Minimum inhibitory concentration of the antibiotic to LP5: 96-well, 37 C 24 h, OD600
Source text: as §1

[4] = system: Colony LP2; assay: Antibiotic susceptibility test; type: cell-based, Lactiplantibacillus Plantarum; conditions: for MIC: Lactiplantibacillus plantarum, LP2, 24 h, read-out: Minimum inhibitory concentration of the antibiotic to LP2
Source text: as §1

[5] = system: Colony PTA22; assay: Antibiotic susceptibility test; type: cell-based, Lactiplantibacillus Plantarum; conditions: for MIC: Lactiplantibacillus plantarum, PTA22, 24 h; for Minimum inhibitory concentration of the antibiotic to PTA22: 96-well, 37 C 24 h, OD600
Source text: as §1

[6] = system: Colony LP1; assay: Antibiotic susceptibility test; type: cell-based, Lactiplantibacillus Plantarum; conditions: for MIC: Lactiplantibacillus plantarum, LP1, 24 h; for Minimum inhibitory concentration of the antibiotic to LP1: 96-well, 37 C 24 h, OD600
Source text: as §1

[7] = system: L. plantarum 299; conditions: from Klarin et al., 2019; cited from earlier work
[8] = system: L. pl 24-2L; conditions: from Georgieva et al., 2015; cited from earlier work
[9] = system: L. pl 24-5D; conditions: from Georgieva et al., 2015; cited from earlier work
[10] = system: species L. plantarum; conditions: EFSA (2005); cited from earlier work
[11] = system: Staphylococcus aureus; assay: Minimum inhibitory concentration and minimum bacterial concentration; type: cell-based; conditions: antibiotics
Method: (§2) Minimum inhibitory concentration (MIC) refers to the minimum concentration at which the development of bacteria can be blocked and antibacterial resistance can be observed after cultured. The lower MIC means the better effect on bacteria.
(§3) The supernatants of the cultured colonies described above were collected, as cell-free solutions (CFSs), by centrifuge at 5000 rpm after cultured the colonies in a nutrient broth and shaking at 37° C. for 48 hours.
(§4) Next, 100 μL each of the CFSs and 100 μL bacterial solutions of the pathogenic bacteria were respectively added to each well of a 96-well plate. Thus, the total volume in each well was 200 μL. The tested pathogenic bacteria included Salmonella enterica, Shigella sonnei, Klebsiella pneumoniae, Streptococcus pneumoniae, Bacillus cereus, Staphylococcus aureus, Pseudomonas aeruginosa, and Escherichia coli.
(§5) As well, 100 μL each of the nutrient broth containing Ampicillin or Kanamycin and 100 μL bacterial solutions of the pathogenic bacteria were respectively added to each well of a 96-well plate. Thus, the total volume in each well was 200 μL.
(§6) Then, initial values of OD600 in each well were recorded. Subsequently, the 96-well plates were cultured at 37° C. for 24 hours, and the OD600 values thereof were re-recorded for determining the MICs of each colony described above.
(§7) Finally, 100 μL CFSs of the next three concentrations […] MIC were taken to be plated on nutrient agar and then cultured at 37° C. for 48-72 hours. The concentrations of the CFSs that no colonies grown on nutrient agar were determined to be the minimum bacterial concentration (MBCs).

[12] = system: Shigella sonnei; assay: as above; type: cell-based; conditions: antibiotics
Method: as §2, §3, §4, §5, §6, §7

[13] = system: Escherichia coli (ETEC); assay: as above; type: cell-based; conditions: antibiotics
Method: as §2, §3, §4, §5, §6, §7

[14] = system: Bacillus cereus; assay: as above; type: cell-based; conditions: antibiotics
Method: as §2, §3, §4, §5, §6, §7

[15] = system: Streptococcus pneumoniae; assay: as above; type: cell-based; conditions: antibiotics
Method: as §2, §3, §4, §5, §6, §7

[16] = system: Klebsiella pneumoniae; assay: as above; type: cell-based; conditions: antibiotics
Method: as §2, §3, §4, §5, §6, §7

[17] = system: Pseudomonas aeruginosa; assay: as above; type: cell-based; conditions: antibiotics
Method: as §2, §3, §4, §5, §6, §7

[18] = read-out: Minimum inhibitory concentration of the antibiotic to LP19, 96-well, 37 C 24 h, OD600
[19] = read-out: Minimum inhibitory concentration of the antibiotic to LP5, 96-well, 37 C 24 h, OD600
[20] = read-out: Minimum inhibitory concentration of the antibiotic to PTA22, 96-well, 37 C 24 h, OD600
[21] = read-out: Minimum inhibitory concentration of the antibiotic to LP1, 96-well, 37 C 24 h, OD600
[22] = plated on nutrient agar 48-72 h

Structure (SMILES)	Minimum inhibitory concentration of the antibiotic to L. plantarum 299v [1] [µg/mL]	MIC [2, 18] [µg/mL]	MIC [3, 19] [µg/mL]	MIC ([4]; 96-well, 37 C 24 h, OD600) [µg/mL]	MIC [5, 20] [µg/mL]	MIC [6, 21] [µg/mL]	Minimum inhibitory concentration of the antibiotic to L. plantarum 299 [7] [µg/mL]	Minimum inhibitory concentration of the antibiotic to L. pl 24-2L [8] [µg/mL]	Minimum inhibitory concentration of the antibiotic to L. pl 24-5D [9] [µg/mL]	further results
CO/N=C(\C(=O)N[C@@H]1C(=O)N2C(C(=O)O)=C(COC(C)=O)CS[C@H]12)c1csc(N)n1 [Cefotaxime]	0.094	< 0.125	< 0.125	< 0.125	< 0.125	< 0.125	0.094			
O=C(N[C@H](CO)[C@H](O)c1ccc([N+](=O)[O-])cc1)C(Cl)Cl [Chloramphenicol]	2	16 (≈ 49.5 µM)	16 (≈ 49.5 µM)	8 (≈ 24.8 µM)	32 (≈ 99 µM)	8 (≈ 24.8 µM)	2	4	6	EFSA, MIC breakpoints species L. plantarum [10]: 8 µg/mL
O=C(O)c1cn(C2CC2)c2cc(N3CCNCC3)c(F)cc2c1=O [Ciprofloxacin]		> 128	> 128	> 128	> 128	> 128				
CCN1CCN(c2cc3c(cc2F)c(=O)c(C(=O)O)cn3C2CC2)CC1 [Enrofloxacin]		64 (≈ 178 µM)	64 (≈ 178 µM)	64 (≈ 178 µM)	64 (≈ 178 µM)	64 (≈ 178 µM)				MIC ([11]; 37 C 24 h, OD600): 1 µg/mL (≈ 2.78 µM); MBC [11, 22]: 1 µg/mL (≈ 2.78 µM); MIC ([12]; 37 C 24 h, OD600): < 0.125 µg/mL; MBC [12, 22]: < 0.125 µg/mL; MIC ([13]; 37 C 24 h, OD600): 4 µg/mL (≈ 11.1 µM); MBC [13, 22]: 8 µg/mL (≈ 22.3 µM); MIC ([14]; 37 C 24 h, OD600): 8 µg/mL (≈ 22.3 µM); MBC [14, 22]: 8 µg/mL (≈ 22.3 µM); MIC ([15]; 37 C 24 h, OD600): 0.25 µg/mL (≈ 0.696 µM); MBC [15, 22]: 0.5 µg/mL (≈ 1.39 µM); MIC ([16]; 37 C 24 h, OD600): 32 µg/mL (≈ 89 µM); MBC [16, 22]: 32 µg/mL (≈ 89 µM); MIC ([17]; 37 C 24 h, OD600): 16 µg/mL (≈ 44.5 µM); MBC [17, 22]: 16 µg/mL (≈ 44.5 µM)
CC[C@H]1OC(=O)[C@H](C)[C@@H](O[C@H]2C[C@@](C)(OC)[C@@H](O)[C@H](C)O2)[C@H](C)[C@@H](O[C@@H]2O[C@H](C)C[C@H](N(C)C)[C@H]2O)[C@](C)(O)C[C@@H](C)C(=O)[C@H](C)[C@@H](O)[C@]1(C)O [Erythromycin]	1	2 (≈ 2.73 µM)	2 (≈ 2.73 µM)	2 (≈ 2.73 µM)	4 (≈ 5.45 µM)	1 (≈ 1.36 µM)	0.75	0.75	0.75	EFSA, MIC breakpoints species L. plantarum [10]: 4 µg/mL
CO[C@H]1/C=C/O[C@@]2(C)Oc3c(C)c(O)c4c(O)c(c(/C=N/N5CCN(C)CC5)c(O)c4c3C2=O)NC(=O)/C(C)=C\C=C\[C@H](C)[C@H](O)[C@@H](C)[C@@H](O)[C@@H](C)[C@H](OC(C)=O)[C@@H]1C [Rifampicin]		2 (≈ 2.43 µM)	1 (≈ 1.22 µM)	1 (≈ 1.22 µM)	2 (≈ 2.43 µM)	1 (≈ 1.22 µM)				
Cc1cc(NS(=O)(=O)c2ccc(N)cc2)no1 [Sulfamethoxazole]		> 256	> 256	> 256	> 256	> 256				Minimum inhibitory concentration of the antibiotic to LP19 [2]: >256 µg/mL; Minimum inhibitory concentration of the antibiotic to LP5 [3]: >256 µg/mL; Minimum inhibitory concentration of the antibiotic to LP2 ([4]; 96-well, 37 C 24 h, OD600): >256 µg/mL; Minimum inhibitory concentration of the antibiotic to PTA22 [5]: >256 µg/mL; Minimum inhibitory concentration of the antibiotic to LP1 [6]: >256 µg/mL
CN(C)[C@@H]1C(O)=C(C(N)=O)C(=O)[C@@]2(O)C(O)=C3C(=O)c4c(O)cccc4[C@@](C)(O)[C@H]3C[C@@H]12 [Tetracycline]		32 (≈ 72 µM)	32 (≈ 72 µM)	32 (≈ 72 µM)	64 (≈ 144 µM)	32 (≈ 72 µM)				
CN[C@H](CC(C)C)C(=O)N[C@H]1C(=O)N[C@@H](CC(N)=O)C(=O)N[C@H]2C(=O)N[C@H]3C(=O)N[C@H](C(=O)N[C@H](C(=O)O)c4cc(O)cc(O)c4-c4cc3ccc4O)[C@H](O)c3ccc(c(Cl)c3)Oc3cc2cc(c3O[C@@H]2O[C@H](CO)[C@@H](O)[C@H](O)[C@H]2O[C@H]2C[C@](C)(N)[C@H](O)[C@H](C)O2)Oc2ccc(cc2Cl)[C@H]1O [Vancomycin]	>256						>256	>256	>256	Minimum inhibitory concentration of the antibiotic to LP19 [2]: >256 µg/mL; MIC ([2]; read-out: Minimum inhibitory concentration of the antibiotic to LP19): > 256 µg/mL; Minimum inhibitory concentration of the antibiotic to LP5 [3]: >256 µg/mL; MIC ([3]; read-out: Minimum inhibitory concentration of the antibiotic to LP5): > 256 µg/mL; Minimum inhibitory concentration of the antibiotic to LP2 ([4]; 96-well, 37 C 24 h, OD600): >256 µg/mL; MIC [4]: > 256 µg/mL; Minimum inhibitory concentration of the antibiotic to PTA22 [5]: >256 µg/mL; MIC ([5]; read-out: Minimum inhibitory concentration of the antibiotic to PTA22): > 256 µg/mL; Minimum inhibitory concentration of the antibiotic to LP1 [6]: >256 µg/mL; MIC ([6]; read-out: Minimum inhibitory concentration of the antibiotic to LP1): > 256 µg/mL
